Tests used:
IGROV1 = experiment: NCI growth inhibition screen, ovarian panel; format: cell-based, human; parameters: key: = means equivalent activity; + means that it appears to be significantly better (i.e., by ˜2x); < means it appears to be less active than ET18OCH3 (˜2x); a combination like =/+ or </+ means that activity is dependent upon the isomer; a combination like =/+ or </+ means that activity is dependent upon the isomer; details: from GI50s
Method: (§1) Candidates deemed suitable for in vivo testing were then synthesized in large scale quantities and some of this material was sent to the NCI's Developmental Therapeutics Program for a battery of growth inhibitory studies against various human tumor cell lines (60 cell lines, 9 different panels). The remainder of the material was used to assess in vivo efficacy using murine tumor models. Additionally, studies were conducted on the lead candidates to discern mechanism of action with particular emphasis on these agents apoptotic ability as measured by caspase 3 activity. The details (materials and methods) for these various assays are described further in the following discussion.
(§2) Ten compounds were also sent to NCI's Drug Discovery Program for screening against numerous human tumor cell lines (9 panels total: renal ovarian, colon, CNS, non-small cell lung, leukemia, breast, melanoma, and prostate). The data are shown in FIGS. 2a-i which also include data regarding D- and L-ET-18-OCH3 (listed as L-EL and D-EL in the figures). Upon examining the data, one is struck by how 1R and 1a′S standout in comparison to the other compounds, especially for the renal, ovarian, colon, and CNS panels.

OVCAR-8 = experiment: NCI growth inhibition screen, ovarian panel; format: cell-based, human; parameters: key: = means equivalent activity; + means that it appears to be significantly better (i.e., by ˜2x); < means it appears to be less active than ET18OCH3 (˜2x); a combination like =/+ or </+ means that activity is dependent upon the isomer; a combination like =/+ or </+ means that activity is dependent upon the isomer; details: OVCAR-8, Ovarian; from GI50s
Method: as §1, §2

SK-OV-3 = experiment: NCI growth inhibition screen, ovarian panel; format: cell-based, human; parameters: key: = means equivalent activity; + means that it appears to be significantly better (i.e., by ˜2x); < means it appears to be less active than ET18OCH3 (˜2x); a combination like =/+ or </+ means that activity is dependent upon the isomer; a combination like =/+ or </+ means that activity is dependent upon the isomer; details: SK-OV-3, Ovarian; from GI50s
Method: as §1, §2

[1] = tested on: platelets in dog whole blood
Method: Briefly, whole citrated blood is diluted 1:2 with sterile saline and placed in a warm chamber with a mini stir bar. An electronic probe, measuring electrical resistance, is inserted in the sample. The aggregometer is calibrated and the baseline is observed to detect any spontaneous aggregation. The test sample is added and allowed to run for at least 6 minutes. If the sample is an agonist the platelets will start to aggregate and stick to the electronic probe causing resistance across the electrodes to increase. This resistance, in ohms, is measured 6 minutes post addition of sample. The test samples are run at 25, 100, 200, 400 and 800 uM and compared to 100 uM L-ET-18-OCH3.
Collection of Blood Sample for in vitro Platelet Aggregation Testing: Venous blood is collected in 4.5 mL Vacutainer tubes containing 0.129 M sodium citrate using a 21G needle or larger. Blood is immediately mixed by gentle inversion 15-20 times and kept at room temperature. Dilution ratio is 1 to 9 (3.8% citrate solution:blood). One (2.0 mL) Vacutainer tube containing EDTA is also collected for platelet counts. Complete blood counts (CBC) are measured on the CDC Technologies Hemavet 1500 to ensure that the test subject's platelets are within normal range. Amy vials of hemolytic blood or blood containing any clots should be discarded. Platelet aggregation testing must be completed within 3 hours of blood collection. After this time the ability of platelets to aggregate decreases.
Dilutions were prepared in PBS or saline at 40× concentration. (25 uL test sample are added to 1000 uL diluted blood (1:40)).

Row | Compound | Performance as compared to ET-18-O—CH3 (IGROV1) | Performance as compared to ET-18-O—CH3 (OVCAR-8) | Performance as compared to ET-18-O—CH3 (SK-OV-3) | Platelet aggregation [1] | platelet aggregation response (in words) [1]
1 | CCCCCCCCCCCCCCCCCCOC[C@@H](COP(=O)([O-])OCC[N+](C)(C)C)OS(C)(=O)=O [1a′S] | 0 | 0 | 0 |  | 
2 | CCCCCCCCCCCCCCCCCCOCC(COP(=O)([O-])OCC[N+](C)(C)C)OS(C)(=O)=O (centres unmarked) [Compound 1aR] | = | = | = |  | 
3 | CCCCCCCCCCCCCCCCCCOCC(COP(=O)([O-])OCC[N+](C)(C)C)OC [D-ET18OCH3, 1-O-octadecyl-2-O-methyl-glycerophosphocholine, reference compound] |  |  |  | − | doesn't elicit an aggregation response

Source: US20060122153A1, “Antineoplastic ether lipid compounds with modifications at the sn-2 carbon” (priority 2003, published 2006)
